This is an account of results in US20060153773A1, “Contrast medium for mri” (priority 2003, published 2006).

Series [1] deals with injured left common carotid artery. In words: In vivo MRI of common carotid arteries in balloon-injured living rat. The following applies: for MRI signal in the injured left common carotid artery (image): 2 ml of 24 mM (about 160 μM/kg) via left femoral vein, T1 weighted spin echo, FIG. 6; for MRI signal intensity of injured common carotid artery versus normal common carotid artery: 2 ml of 24 mM via left femoral vein, time course, own agent stated at ten minutes after administration, FIG. 7. As for the experimental part:
This example is to evaluate the imaging capability of the contrast agent of the present invention by means of an in vivo experiment using a living rat. A rat (weighing about 300 g) was anesthetized with pentobarbital, and inserted with a balloon-tip catheter through the left femoral artery [FIG. 5 (a), 1]. The left common carotid artery was scraped by the balloon to injure the endothelia thereof. Then the rat was injected, through the left femoral vein [FIG. 5 (a), 2], with 2 ml (about 160 μM/kg) of physiological aqueous solution of the contrast agent as prepared in Example 1 (24 mM). At predetermined lapses of time, images were taken by MRI (the T1 weighted spin echo method) around the right and left common carotid artery [the cross section along the line N-N in FIG. 5 (a)]. The rat was supplementally anesthetized in order to keep it motionless during the imaging operation. For comparison, an evaluation experiment was also carried out in the same manner with a conventional agent, DTPA-Gd. […] In FIG. 6, by “injured” is designated the left common carotid artery injured by the balloon, corresponding to 4 in FIG. 5 (b), while by “intact” is designated the right common carotid artery, which is normal and corresponds to 5 in FIG. 5 (b). The numeral 3 in FIG. 5 (b) denotes the bronchium.

Series [2] deals with exfoliated endothelial site (balloon-injured left carotid artery). In words: Ex vivo MRI of extirpated carotid arteries after injection into balloon-injured living rat. In kind it is in vivo. The following applies: 2 ml of 24 mM via right jugular vein, FIG. 3. As for the experimental part: The contrast agent of the present invention was evaluated for imaging capability by means of an ex vivo experiment using a living rat. A balloon-tip catheter was passed through the left femoral artery of the rat to injure the carotid artery with the balloon. Then 2 ml of aqueous saline solution containing 24 mM of the contrast agent (EBDTPA-Gd prepared in Example 1) was injected to the rat through the right jugular vein. After a predetermined period of time (10, 30 or 120 minutes), the right carotid artery and the left carotid artery were extirpated, developed, washed with a physiological saline, and then subjected to evaluation by MRI. The MRI evaluation was carried out by imaging the extirpated carotid artery sections, under the condition of being added with one or two droplets of physiological saline solution, by the T1 weighted spin echo method. In FIG. 3, by “injured” is denoted the exfoliated endothelial site (the left carotid artery), which had been injured by the balloon, while “intact” denotes the normal endothelial site (the right carotid artery). The photographs of the developed vascular samples as presented in FIG. 3 reveal purple coloring with intensities corresponding to the MRI signal intensities described later. The pictures (A) as presented in FIG. 3 below the photographs of the developed vascular samples illustrate the states of the samples prepared for the study by MRI. As illustrated, each carotid artery section was developed on a glass plate and covered with one or two droplets of physiological saline solution, for the MRI study.

Series [3] deals with exfoliated endothelial site of aortic vascular section. In words: In vitro MRI imaging capability on aortic vascular section extirpated from a pig. The settings on record: pig aortic section immersed in 10 mM aqueous solution for ten seconds. As for the experimental part:
For the contrast agent as synthesized (prepared) in Example 1, evaluation of in vitro imaging capability by MRI was carried out with an aortic vascular section extirpated from a pig, as a specimen.
The aortic vascular section extirpated from a pig was spread in a rectangular shape measuring about 2 cm×3 cm to prepare a vascular section sample. The endothelial surface of the left half of the sample was exfoliated with a scalpel. The sample was then immersed in a 10 mM aqueous solution of the contrast agent for ten seconds. Following thorough washing with physiological saline solution, the sample was subjected to the evaluation by MRI as well as by visual observation.
FIG. 2 (A) is a picture taken with a digital camera, which corresponds to the visual observation. […] FIG. 2 (B) is an MRI image (by the T1 weighted spin echo method).

The nature of series [4]: Gd content remaining in various organs of the rat (ICP). It counts as in vivo. As for the experimental part: This was also verified by measuring Gd (gadolinium) content remaining in various organs of the rat, in which the measurement was carried out as follows: The rat was administered with 1 ml heparin and a blood sample was taken from the rat. Then physiological saline solution was circulated throughout the rat, and the various organs were extirpated from the rat. To each organ and the blood sample was added 3 ml nitric acid, followed by standing for one hour. The resultant was added with 25% hydrogen peroxide aqueous solution and then allowed to stand overnight at room temperature. The resultant solution was warmed and added with 6 ml water. The insolubles were removed by filtration, and the filtrate was analyzed by ICP.

On to `Cc1cc(-c2ccc(NC(=O)CN(CCN(CCN(CC(=O)O)CC(=O)O)CC(=O)O)CC(=O)O)c(C)c2)ccc1N=Nc1ccc2c(S(=O)(=O)O)cc(S(=O)(=O)O)c(N)c2c1O` [contrast agent of the present invention], for which, in series [1], the “MRI signal in the injured left common carotid artery (image)” value is listed as “clear MRI signal” and the “MRI signal intensity of injured common carotid artery versus normal common carotid artery” value is recorded as “higher than that for the normal right common carotid artery”. Moreover, the “difference in MRI signal intensity between exfoliated site and normal site” value in series [2] (after 120 minutes) is on record as “no substantial difference”. Moreover, in series [2] (after thirty minutes), the “difference in MRI signal intensity between exfoliated endothelial site and normal site” value is listed as “the difference in the signal intensity therebetween shortened”. For the same compound, the “MRI signal intensity of the injured site relative to the normal site” value in series [2] (ten minutes from the injection) was determined as 1.74 times. For the same compound, the “visual observation of the exfoliated endothelial site” value in series [3] (FIG. 2(A)) is given as “colored blue”. Further, the “MRI signal intensity at the exfoliated endothelial site relative to the normal endothelial site” value in series [3] (T1 weighted spin echo, FIG. 2(C)) was “about ten”. For the same compound, in series [4] (rat organs and blood, ICP, FIG. 4), the “Gd content remaining in various organs” value is “substantially no remaining Gd in organs other than the blood and kidney”. Moreover, the “colour of urine (excretion through the kidney)” value in series [4] (rat, ten minutes after the administration) is given as “colored purple”.
For `O=C([O-])CN(CCN(CC(=O)[O-])CC(=O)O)CCN(CC(=O)[O-])CC(=O)O.[Gd+3]` [DTPA-Gd, reference compound], in series [1], the “MRI signal in the injured left common carotid artery (image)” value was “no such signal was observed” and the “MRI signal intensity of injured common carotid artery versus normal common carotid artery” value is “no substantial difference”.
